Source: ChEMBL document CHEMBL1201861, “Genomics of Drug Sensitity in Cancer screening data, Wellcome Trust Sanger Institute”

Experiments:
LXF-289 cell line = test: cells; format: functional, cell-based, Homo sapiens; conditions: Homo sapiens, LXF-289
Description: SANGER: Inhibition of human LXF-289 cell growth in a cell viability assay.

KYSE-70 cell line = test: cells; format: functional, cell-based, Homo sapiens; conditions: Homo sapiens, KYSE-70;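 note: cell viability assay read-out, with IC50 expressing suppression of KYSE-70 cell growth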
Description: SANGER: Inhibition of human KYSE-70 cell growth in a cell viability assay.

LCLC-103H cell line = test: cells; format: functional, cell-based, Homo sapiens; conditions: Homo sapiens, LCLC-103H
Description: SANGER: Inhibition of human LCLC-103H cell growth in a cell viability assay.

KYSE-150 cell line = test: cells; format: functional, cell-based, Homo sapiens; conditions: Homo sapiens, KYSE-150;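 note: growth inhibition of human KYSE-150 cells, read out with a cell viability assay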
Description: SANGER: Inhibition of human KYSE-150 cell growth in a cell viability assay.

KU812 cell line = test: cells; format: functional, cell-based; conditions: Homo sapiens;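 note: growth inhibition of KU812 cells, read out with a cell viability assay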
Description: SANGER: Inhibition of human KU812 cell growth in a cell viability assay.

A253 cell line = test: cells; format: functional, cell-based, Homo sapiens; conditions: Homo sapiens, A253;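 note: growth inhibition of A253 cells, read out with a cell viability assay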
Description: SANGER: Inhibition of human A253 cell growth in a cell viability assay.

KYSE-520 cell line = test: cells; format: functional, cell-based, Homo sapiens; conditions: Homo sapiens, KYSE-520;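 note: growth inhibition of human KYSE-520 cells, read out with a viability assay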
Description: SANGER: Inhibition of human KYSE-520 cell growth in a cell viability assay.

BC1 cell line = test: SANGER: Inhibition of human BC-1 cell growth in a cell viability assay.; format: functional, cell-based
HMV-2 cell line = test: cells; format: functional, cell-based, Homo sapiens; conditions: Homo sapiens, HMV-2;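 note: growth inhibition of HMV-II cells, read out with a cell viability assay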
Description: SANGER: Inhibition of human HMV-II cell growth in a cell viability assay.

Caov-3 cell line = test: cells; format: functional, cell-based; conditions: Homo sapiens;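 note: cell growth inhibition read out by a viability assay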
Description: SANGER: Inhibition of human Caov-3 cell growth in a cell viability assay.

IC50 (LXF-289 cell line): > 2560 nM
IC50 (KYSE-70 cell line): > 2560 nM
IC50 (LCLC-103H cell line): 788 nM
IC50 (KYSE-150 cell line): 2250 nM
IC50 (KU812 cell line): > 2560 nM
IC50 (A253 cell line): > 2560 nM
IC50 (KYSE-520 cell line): > 2560 nM
IC50 (HMV-2 cell line): 183 nM
IC50 (Caov-3 cell line): > 2560 nM
SMILES: C[C@@]1(C(=O)Nc2ccc(F)nc2)CCCN1c1nc(Nc2cc(C3CC3)n[nH]2)c2cccn2n1 [BMS-754807]
IC50 (BC1 cell line): 587 nM
